According to ChEMBL document CHEMBL1909046, “DrugMatrix in vitro pharmacology data”:

Experiments:
[1] = DRUGMATRIX: Sodium/nucleoside co-transporter radioligand binding (ligand: nitrobenzylthioinosine); assay type: cell membranes, Cavia porcellus, Dunkin-Hartley, Cerebral cortex, Membrane; conditions: Not Active = under 50% inhibition at 10 µM
[2] = target: T1, Type-2 angiotensin II receptor (Homo sapiens, UniProt P50052); assay type: cell-based; conditions: cho-k1; further: in other assays of this panel Not Active means under 50% inhibition at 10 µM
T1 sequence (P50052 whole entry): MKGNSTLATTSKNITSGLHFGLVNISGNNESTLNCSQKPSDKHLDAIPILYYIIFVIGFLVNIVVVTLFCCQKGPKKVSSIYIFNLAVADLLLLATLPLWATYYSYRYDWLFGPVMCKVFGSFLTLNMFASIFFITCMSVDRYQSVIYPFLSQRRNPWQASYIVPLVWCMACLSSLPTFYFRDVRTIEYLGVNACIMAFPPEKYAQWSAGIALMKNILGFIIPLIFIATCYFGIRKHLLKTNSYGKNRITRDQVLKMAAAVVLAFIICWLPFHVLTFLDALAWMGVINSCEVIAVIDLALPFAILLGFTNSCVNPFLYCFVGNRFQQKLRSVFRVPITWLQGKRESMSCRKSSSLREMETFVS

[3] = DRUGMATRIX: beta-Lactamase enzyme inhibition (substrate: Nitrocefin); set-up: species or system Bacillus cereus; conditions: Not Active = under 50% inhibition at 10 µM
[4] = target: 5-hydroxytryptamine receptor 6 (Homo sapiens, UniProt P50406); assay type: cell membranes, HeLa, Membrane; conditions: hela; further: in other assays of this panel Not Active means under 50% inhibition at 10 µM
[5] = target: T2, Vasoactive intestinal polypeptide receptor 1 (Homo sapiens, UniProt P32241); assay type: cell membranes, Membrane; conditions: ht-29; further: in other assays of this panel Not Active means under 50% inhibition at 10 µM
T2 sequence (P32241 whole entry): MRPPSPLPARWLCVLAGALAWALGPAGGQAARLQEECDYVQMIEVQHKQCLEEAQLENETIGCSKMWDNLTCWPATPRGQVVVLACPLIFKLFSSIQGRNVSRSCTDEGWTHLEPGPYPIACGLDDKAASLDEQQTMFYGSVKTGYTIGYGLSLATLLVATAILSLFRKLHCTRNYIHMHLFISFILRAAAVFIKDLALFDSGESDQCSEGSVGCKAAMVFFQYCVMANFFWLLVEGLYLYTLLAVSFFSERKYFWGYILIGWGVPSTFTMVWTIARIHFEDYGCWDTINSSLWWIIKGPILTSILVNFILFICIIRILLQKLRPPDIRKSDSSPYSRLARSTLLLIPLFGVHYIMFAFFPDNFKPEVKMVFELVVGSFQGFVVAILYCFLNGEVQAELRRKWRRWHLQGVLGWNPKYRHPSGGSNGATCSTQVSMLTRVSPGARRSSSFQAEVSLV

[6] = target: Vasopressin V1a receptor (Homo sapiens, UniProt P37288); assay type: cell membranes, Membrane; conditions: hek293; further: in other assays of this panel Not Active means under 50% inhibition at 10 µM
[7] = target: Cannabinoid receptor 1 (Homo sapiens, UniProt P21554); assay type: cell membranes, Membrane; conditions: chem-1; further: in other assays of this panel Not Active means under 50% inhibition at 10 µM
[8] = target: Prostaglandin G/H synthase 1 (Homo sapiens, UniProt P23219); test: biochemical; assay type: tissue-based, Platelet; conditions: platelet
[9] = target: D(3) dopamine receptor (Homo sapiens, UniProt P35462); test: DRUGMATRIX: Dopamine D3 radioligand binding (ligand: [3H] Spiperone); assay type: cell membranes, CHO, Membrane; conditions: cho
[10] = target: T3, 3-hydroxy-3-methylglutaryl-coenzyme A reductase (Homo sapiens, UniProt P04035); set-up: species or system Escherichia coli
T3 sequence (P04035 whole entry): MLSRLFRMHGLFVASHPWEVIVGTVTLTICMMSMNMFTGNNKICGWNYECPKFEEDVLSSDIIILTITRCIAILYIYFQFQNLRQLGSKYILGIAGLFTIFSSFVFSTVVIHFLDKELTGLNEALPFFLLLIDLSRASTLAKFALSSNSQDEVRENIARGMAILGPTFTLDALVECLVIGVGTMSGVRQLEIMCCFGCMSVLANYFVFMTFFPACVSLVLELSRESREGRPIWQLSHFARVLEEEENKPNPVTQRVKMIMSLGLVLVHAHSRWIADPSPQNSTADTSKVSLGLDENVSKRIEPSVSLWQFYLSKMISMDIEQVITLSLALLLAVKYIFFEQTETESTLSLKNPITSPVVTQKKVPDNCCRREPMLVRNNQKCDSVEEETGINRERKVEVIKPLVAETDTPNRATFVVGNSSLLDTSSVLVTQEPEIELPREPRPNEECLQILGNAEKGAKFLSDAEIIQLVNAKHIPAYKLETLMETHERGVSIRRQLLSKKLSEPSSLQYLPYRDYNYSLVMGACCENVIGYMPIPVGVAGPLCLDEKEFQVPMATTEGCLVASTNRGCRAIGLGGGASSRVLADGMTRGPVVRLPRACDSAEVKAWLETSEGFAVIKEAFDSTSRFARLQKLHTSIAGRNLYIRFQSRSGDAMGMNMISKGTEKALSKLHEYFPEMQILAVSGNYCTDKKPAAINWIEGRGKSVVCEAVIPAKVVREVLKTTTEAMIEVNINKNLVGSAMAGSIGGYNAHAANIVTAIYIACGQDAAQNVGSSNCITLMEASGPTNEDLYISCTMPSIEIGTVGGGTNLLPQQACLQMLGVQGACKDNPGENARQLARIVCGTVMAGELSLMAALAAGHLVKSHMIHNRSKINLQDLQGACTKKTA

[11] = target: Nitric oxide synthase 1 (Rattus norvegicus, UniProt P29476); assay type: tissue-based, Cerebellum; further: in other assays of this panel Not Active means under 50% inhibition at 10 µM
[12] = target: cGMP-specific 3',5'-cyclic phosphodiesterase (Homo sapiens, UniProt O76074); test: DRUGMATRIX: Phosphodiesterase PDE5 enzyme inhibition (substrate: [3H]cGMP + cGMP); assay type: tissue-based, Platelet; conditions: platelet; Not Active = under 50% inhibition at 10 µM
[13] = target: T4, Neutrophil elastase (Homo sapiens, UniProt P08246); assay type: tissue-based
T4 sequence (P08246 whole entry): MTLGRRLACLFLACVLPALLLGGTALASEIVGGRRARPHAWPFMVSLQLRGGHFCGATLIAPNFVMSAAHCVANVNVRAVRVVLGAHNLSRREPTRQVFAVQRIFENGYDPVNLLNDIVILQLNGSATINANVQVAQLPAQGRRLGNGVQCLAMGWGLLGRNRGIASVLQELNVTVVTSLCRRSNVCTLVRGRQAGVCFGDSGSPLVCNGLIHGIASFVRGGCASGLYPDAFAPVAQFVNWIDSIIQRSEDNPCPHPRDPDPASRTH

[14] = target: Receptor tyrosine-protein kinase erbB-2 (Homo sapiens, UniProt P04626); test: biochemical; assay type: cell-based, Insect cells; conditions: insect cells
[15] = target: 5-hydroxytryptamine receptor 1B (Rattus norvegicus, UniProt P28564); assay type: cell membranes, Wistar, Cerebral cortex, Membrane; further: in other assays of this panel Not Active means under 50% inhibition at 10 µM
[16] = target: Cytochrome P450 2E1 (Homo sapiens, UniProt P05181); conditions: bti-tn-5b1-4; further: in other assays of this panel Not Active means under 50% inhibition at 10 µM
Sequence of Cytochrome P450 2E1 (P05181 whole entry): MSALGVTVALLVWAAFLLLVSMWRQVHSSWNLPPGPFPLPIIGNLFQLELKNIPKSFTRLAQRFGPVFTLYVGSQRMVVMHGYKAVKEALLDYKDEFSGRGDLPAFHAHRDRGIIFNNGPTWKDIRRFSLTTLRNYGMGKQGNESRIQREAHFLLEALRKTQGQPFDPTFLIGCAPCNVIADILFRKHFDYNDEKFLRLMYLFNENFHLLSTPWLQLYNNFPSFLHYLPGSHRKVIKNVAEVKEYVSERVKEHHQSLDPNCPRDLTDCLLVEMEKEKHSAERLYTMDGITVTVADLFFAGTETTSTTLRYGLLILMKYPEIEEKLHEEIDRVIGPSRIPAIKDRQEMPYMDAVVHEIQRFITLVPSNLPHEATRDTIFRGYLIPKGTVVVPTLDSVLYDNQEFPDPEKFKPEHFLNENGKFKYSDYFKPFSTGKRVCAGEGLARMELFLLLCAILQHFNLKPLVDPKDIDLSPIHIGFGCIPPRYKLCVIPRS

Sequence of Nitric oxide synthase 1 (P29476 whole entry): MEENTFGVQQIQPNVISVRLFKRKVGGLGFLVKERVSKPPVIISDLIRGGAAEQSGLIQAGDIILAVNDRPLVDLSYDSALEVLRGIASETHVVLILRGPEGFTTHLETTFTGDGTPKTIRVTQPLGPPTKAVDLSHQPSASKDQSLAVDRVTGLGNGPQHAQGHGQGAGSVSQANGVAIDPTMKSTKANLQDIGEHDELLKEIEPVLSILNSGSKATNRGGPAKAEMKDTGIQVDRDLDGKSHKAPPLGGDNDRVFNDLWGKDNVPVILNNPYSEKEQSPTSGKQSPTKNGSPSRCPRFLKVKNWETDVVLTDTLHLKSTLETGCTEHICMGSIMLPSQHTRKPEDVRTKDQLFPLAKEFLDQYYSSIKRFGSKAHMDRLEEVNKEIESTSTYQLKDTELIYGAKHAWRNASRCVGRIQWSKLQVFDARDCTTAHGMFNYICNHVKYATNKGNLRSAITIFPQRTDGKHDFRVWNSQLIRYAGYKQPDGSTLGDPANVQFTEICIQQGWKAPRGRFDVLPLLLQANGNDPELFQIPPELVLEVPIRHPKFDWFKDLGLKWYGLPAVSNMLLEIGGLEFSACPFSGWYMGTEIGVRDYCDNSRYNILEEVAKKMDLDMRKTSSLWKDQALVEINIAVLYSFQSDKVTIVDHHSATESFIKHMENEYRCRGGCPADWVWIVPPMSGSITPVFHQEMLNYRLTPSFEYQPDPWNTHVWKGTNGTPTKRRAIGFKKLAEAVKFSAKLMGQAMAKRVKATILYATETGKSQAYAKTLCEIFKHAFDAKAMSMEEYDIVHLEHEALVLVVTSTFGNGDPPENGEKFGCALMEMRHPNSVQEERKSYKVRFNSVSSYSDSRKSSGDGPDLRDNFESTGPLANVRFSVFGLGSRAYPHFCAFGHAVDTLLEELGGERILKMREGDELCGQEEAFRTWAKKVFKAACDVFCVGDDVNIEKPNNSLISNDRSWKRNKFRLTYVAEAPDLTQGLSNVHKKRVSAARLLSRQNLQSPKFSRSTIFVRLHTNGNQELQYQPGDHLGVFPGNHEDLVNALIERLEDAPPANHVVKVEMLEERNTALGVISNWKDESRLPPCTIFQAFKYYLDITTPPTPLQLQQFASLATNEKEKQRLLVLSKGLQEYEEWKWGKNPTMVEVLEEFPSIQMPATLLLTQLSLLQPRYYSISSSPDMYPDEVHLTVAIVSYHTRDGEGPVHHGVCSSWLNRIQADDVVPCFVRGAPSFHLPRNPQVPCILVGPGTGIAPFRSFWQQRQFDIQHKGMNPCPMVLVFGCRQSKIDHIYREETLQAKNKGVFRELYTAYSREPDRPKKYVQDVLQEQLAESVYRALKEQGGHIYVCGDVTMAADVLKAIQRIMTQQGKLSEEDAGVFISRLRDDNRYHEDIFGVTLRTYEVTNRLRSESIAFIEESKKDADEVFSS
Sequence of 5-hydroxytryptamine receptor 6 (P50406 whole entry): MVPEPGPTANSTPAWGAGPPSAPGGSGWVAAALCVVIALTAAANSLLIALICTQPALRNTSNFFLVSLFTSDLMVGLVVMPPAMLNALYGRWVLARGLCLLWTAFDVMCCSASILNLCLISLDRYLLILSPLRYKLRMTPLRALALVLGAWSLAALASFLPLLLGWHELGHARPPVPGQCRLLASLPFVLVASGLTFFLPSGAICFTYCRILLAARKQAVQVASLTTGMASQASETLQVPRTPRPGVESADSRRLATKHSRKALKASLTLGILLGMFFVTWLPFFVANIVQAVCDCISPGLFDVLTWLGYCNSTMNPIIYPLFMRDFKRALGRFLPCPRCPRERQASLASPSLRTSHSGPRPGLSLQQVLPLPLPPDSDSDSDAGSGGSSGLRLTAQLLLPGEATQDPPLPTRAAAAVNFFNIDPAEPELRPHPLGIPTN
Sequence of Prostaglandin G/H synthase 1 (P23219 whole entry): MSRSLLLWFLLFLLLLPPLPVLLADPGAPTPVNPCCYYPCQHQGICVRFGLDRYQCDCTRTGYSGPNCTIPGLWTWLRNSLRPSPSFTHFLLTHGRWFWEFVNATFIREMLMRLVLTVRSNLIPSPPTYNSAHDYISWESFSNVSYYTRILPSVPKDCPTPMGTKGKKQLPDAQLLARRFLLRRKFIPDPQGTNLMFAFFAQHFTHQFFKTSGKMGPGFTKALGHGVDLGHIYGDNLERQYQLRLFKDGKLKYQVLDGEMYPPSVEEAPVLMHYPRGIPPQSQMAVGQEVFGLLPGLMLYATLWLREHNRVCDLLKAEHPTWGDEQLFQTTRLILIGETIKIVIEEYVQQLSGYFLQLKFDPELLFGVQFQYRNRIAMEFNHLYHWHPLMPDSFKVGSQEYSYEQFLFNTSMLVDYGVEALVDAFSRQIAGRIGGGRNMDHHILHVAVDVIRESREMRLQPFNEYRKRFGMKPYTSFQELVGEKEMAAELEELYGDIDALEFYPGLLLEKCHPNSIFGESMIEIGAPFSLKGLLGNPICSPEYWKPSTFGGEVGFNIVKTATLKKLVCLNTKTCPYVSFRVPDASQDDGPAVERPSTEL
Sequence of 5-hydroxytryptamine receptor 1B (P28564 whole entry): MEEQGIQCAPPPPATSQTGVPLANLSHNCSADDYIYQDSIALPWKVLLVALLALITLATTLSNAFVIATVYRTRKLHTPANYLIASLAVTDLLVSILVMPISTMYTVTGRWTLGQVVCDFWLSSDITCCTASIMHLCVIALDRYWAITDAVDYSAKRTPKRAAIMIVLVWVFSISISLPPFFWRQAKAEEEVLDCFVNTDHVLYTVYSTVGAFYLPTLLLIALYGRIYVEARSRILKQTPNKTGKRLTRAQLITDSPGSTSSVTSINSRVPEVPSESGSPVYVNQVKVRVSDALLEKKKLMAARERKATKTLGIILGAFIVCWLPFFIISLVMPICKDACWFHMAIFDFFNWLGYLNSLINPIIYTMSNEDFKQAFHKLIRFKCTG
Sequence of Cannabinoid receptor 1 (P21554 whole entry): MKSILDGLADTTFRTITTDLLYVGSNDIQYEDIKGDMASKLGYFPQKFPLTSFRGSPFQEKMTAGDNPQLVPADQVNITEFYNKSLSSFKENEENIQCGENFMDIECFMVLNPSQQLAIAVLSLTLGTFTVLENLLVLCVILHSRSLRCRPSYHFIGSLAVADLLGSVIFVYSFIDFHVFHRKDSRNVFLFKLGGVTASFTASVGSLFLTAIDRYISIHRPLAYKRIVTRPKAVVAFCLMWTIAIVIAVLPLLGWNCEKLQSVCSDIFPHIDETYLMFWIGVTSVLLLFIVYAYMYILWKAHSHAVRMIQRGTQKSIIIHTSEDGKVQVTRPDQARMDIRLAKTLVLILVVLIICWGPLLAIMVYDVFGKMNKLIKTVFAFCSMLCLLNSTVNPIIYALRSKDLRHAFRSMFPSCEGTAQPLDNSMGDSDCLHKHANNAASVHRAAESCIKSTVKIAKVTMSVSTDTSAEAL
Sequence of D(3) dopamine receptor (P35462 whole entry): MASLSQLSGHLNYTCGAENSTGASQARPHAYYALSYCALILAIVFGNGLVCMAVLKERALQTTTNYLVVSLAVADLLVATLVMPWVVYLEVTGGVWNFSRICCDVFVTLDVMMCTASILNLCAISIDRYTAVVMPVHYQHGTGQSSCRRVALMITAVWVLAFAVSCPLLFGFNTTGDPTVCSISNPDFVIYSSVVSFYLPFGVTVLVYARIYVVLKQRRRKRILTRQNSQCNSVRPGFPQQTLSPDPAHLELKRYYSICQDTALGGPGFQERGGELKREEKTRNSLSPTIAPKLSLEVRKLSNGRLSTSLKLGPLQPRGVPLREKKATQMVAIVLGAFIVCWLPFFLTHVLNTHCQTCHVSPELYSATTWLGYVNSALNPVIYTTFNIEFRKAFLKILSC
Sequence of Vasopressin V1a receptor (P37288 whole entry): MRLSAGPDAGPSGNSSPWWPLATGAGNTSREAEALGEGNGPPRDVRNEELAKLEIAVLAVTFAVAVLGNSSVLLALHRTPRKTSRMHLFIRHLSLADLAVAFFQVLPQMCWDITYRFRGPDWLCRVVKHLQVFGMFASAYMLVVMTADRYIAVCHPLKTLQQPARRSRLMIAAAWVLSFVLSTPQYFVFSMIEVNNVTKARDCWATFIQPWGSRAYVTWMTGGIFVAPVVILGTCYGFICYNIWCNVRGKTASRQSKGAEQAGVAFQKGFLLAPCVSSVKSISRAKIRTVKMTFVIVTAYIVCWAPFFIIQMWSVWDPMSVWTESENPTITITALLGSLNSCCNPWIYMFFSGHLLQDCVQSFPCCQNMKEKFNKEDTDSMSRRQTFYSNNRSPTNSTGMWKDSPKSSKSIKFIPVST

CC1=C(/C=C/C(C)=C/C=C/C(C)=C\C(=O)O)C(C)(C)CCC1 [ISOTRETINOIN]
Not Active: IC50 [1] | Ki [1] | IC50 [2] | IC50 [3] | Ki [3] | IC50 [4] | IC50 [5] | IC50 [6] | IC50 [7] | IC50 [8] | IC50 [9] | IC50 [10] | IC50 [11] | IC50 [12] | IC50 [13] | IC50 [14] | IC50 [15] | IC50 [16] | Ki [16]

CO[C@@H]1[C@@H](O[C@@H]2O[C@H](C)[C@@H](O[C@H]3C[C@@](C)(O)[C@@H](OC(=O)CC(C)C)[C@H](C)O3)[C@H](N(C)C)[C@H]2O)[C@@H](CC=O)C[C@@H](C)[C@@H](O)/C=C/C=C/C[C@@H](C)OC(=O)C[C@H]1O [KITASAMYCIN]
Not Active: IC50 [1] | Ki [1] | IC50 [2] | IC50 [3] | Ki [3] | IC50 [4] | IC50 [5] | IC50 [6] | IC50 [7] | IC50 [8] | IC50 [9] | IC50 [10] | IC50 [11] | IC50 [12] | IC50 [13] | IC50 [14] | IC50 [15] | IC50 [16] | Ki [16]

CC(CCc1ccccc1)NCC(O)c1ccc(O)c(C(N)=O)c1 (configuration not stated) [LABETALOL]
Not Active: IC50 [1] | Ki [1] | IC50 [2] | IC50 [3] | Ki [3] | IC50 [4] | IC50 [5] | IC50 [6] | IC50 [7] | IC50 [8] | IC50 [9] | IC50 [10] | IC50 [11] | IC50 [12] | IC50 [13] | IC50 [14] | IC50 [15] | IC50 [16] | Ki [16]

Nc1nnc(-c2cccc(Cl)c2Cl)c(N)n1 [LAMOTRIGINE]
Not Active: IC50 [1] | Ki [1] | IC50 [2] | IC50 [3] | Ki [3] | IC50 [4] | IC50 [5] | IC50 [6] | IC50 [7] | IC50 [8] | IC50 [9] | IC50 [10] | IC50 [11] | IC50 [12] | IC50 [13] | IC50 [14] | IC50 [15] | IC50 [16] | Ki [16]

CCC[C@@H]1C[C@@H](C(=O)N[C@@H]([C@H]2O[C@H](SC)[C@H](O)[C@@H](O)[C@H]2O)[C@@H](C)O)N(C)C1 [LINCOMYCIN]
Not Active: IC50 [1] | Ki [1] | IC50 [2] | IC50 [3] | Ki [3] | IC50 [4] | IC50 [5] | IC50 [6] | IC50 [7] | IC50 [8] | IC50 [9] | IC50 [10] | IC50 [11] | IC50 [12] | IC50 [13] | IC50 [14] | IC50 [15] | IC50 [16] | Ki [16]

NCCCC[C@H](N[C@@H](CCc1ccccc1)C(=O)O)C(=O)N1CCC[C@H]1C(=O)O [LISINOPRIL ANHYDROUS]
Not Active: IC50 [1] | Ki [1] | IC50 [2] | IC50 [3] | Ki [3] | IC50 [4] | IC50 [5] | IC50 [6] | IC50 [7] | IC50 [8] | IC50 [9] | IC50 [10] | IC50 [11] | IC50 [12] | IC50 [13] | IC50 [14] | IC50 [15] | IC50 [16] | Ki [16]

COS(C)(=O)=O [METHANESULFONIC ACID METHYL ESTER]
Not Active: IC50 [1] | Ki [1] | IC50 [2] | IC50 [3] | Ki [3] | IC50 [4] | IC50 [5] | IC50 [6] | IC50 [7] | IC50 [8] | IC50 [9] | IC50 [10] | IC50 [11] | IC50 [12] | IC50 [13] | IC50 [14] | IC50 [15] | IC50 [16] | Ki [16]

COC(=O)c1ccc(O)cc1 [METHYLPARABEN]
Not Active: IC50 [1] | Ki [1] | IC50 [2] | IC50 [3] | Ki [3] | IC50 [4] | IC50 [5] | IC50 [6] | IC50 [7] | IC50 [8] | IC50 [9] | IC50 [10] | IC50 [11] | IC50 [12] | IC50 [13] | IC50 [14] | IC50 [15] | IC50 [16] | Ki [16]
